Laboratory results as given in US7776826B2, “Method for fostering bone formation and preservation” (Unigene Laboratories, Inc., priority 2004, dated 2010).

How the values were obtained:
Format in all cases: in vivo, rat
[1] = system: osteoporotic female Sprague-Dawley rats; assay: Lumbar vertebral bone mineral density and bone formation rate in ovariectomized osteoporotic rats, without mechanical induction; details: OVX rats, 4 weeks subcutaneous treatment, no mechanical induction
Protocol: FIG. 15 is a bar graph comparing the Lumbar Vertebral Bone Mineral Density obtained in osteoporotic female Sprague-Dawley rats wherein the osteoporosis was induced via an ovariectomy. The rats were treated with (1) PTH[1-31]-NH2; (2) PTH[1-34]-NH2; and PTH[1-34]-OH; and
FIG. 16 is a bar graph comparing the Lumbar Vertebral Bone Formation Rate obtained in osteoporotic female Sprague-Dawley rats wherein the osteoporosis was induced via an ovariectomy. The rats were treated with (1) PTH[1-31]-NH2; (2) PTH[1-34]-NH2; and PTH[1-34]-OH.
A series of experiments was performed comparing (1) lumbar vertebral bone mineral density, and (2) lumbar vertebral bone formation rate achieved with PTH[1-31]-NH2 and PTH[1-34]-OH compared to the preferred PTH[1-34]-NH2 analog discussed above in the absence of the mechanical induction step of the invention. The study involved a four-week treatment of female Sprague-Dawley rats at 10 months of age, and 6 months post-ovariectomy (“OVX”), which induces osteoporosis, with one of the three above-noted parathyroid hormone truncates. The rats were randomized into the following groups: sham OVX, OVX+ vehicle, OVX+PTH [1-31]-NH2 or PTH [1-34]-NH2 (obtained from Unigene Laboratories, Inc.) at 2.5, 10 or 40 μg/kg/day subcutaneous, or PTH[1-34]-OH (obtained from Bachem) at 10 μg/kg/day subcutaneous. After 4 weeks of treatment, the right femur of each animal was analyzed by DEXA and bone histomorphometry. FIG. 15 is a bar graph providing a comparison of the lumbar vertebral bone mineral density achieved with PTH[1-31]-NH2, PTH[1-34]-NH2 and PTH[1-34]-OH. FIG. 16 is a bar graph comparing the lumbar vertebral formation rates achieved with these same truncates. […] Because of the similarity of anabolic action among the above-discussed parathyroid hormones, it is therefore reasonable to expect that all known PTH analogs will advantageously function in the desired manner in the method of the present invention.

[2] = system: Male Sprague-Dawley rats; assay: pQCT analysis of left (ablated) and right (non-ablated) femoral shafts, Groups A-J; details: for Left femoral shaft Total density mean / Left femoral shaft Trabecular density mean: ablated femur; for new trabecular bone formation in left femoral shaft, in words: bmx, pQCT; for Right femoral shaft Total density mean / Right femoral shaft Trabecular density mean: non-ablated femur (bmx on contralateral left femur)
From the text: FIG. 4 (a-d) are graphical representations of the results of Peripheral Quantitative Computerized Tomography (PQCT) analyses of, respectively, the left (ablated) and right (non-ablated) femoral shafts of the rats which are the subject of FIG. 3 above. FIGS. 4(a) and 4(b) illustrate the trabecular bone density observed in respectively, the left and right femoral shafts of these rats, whereas, FIGS. 4(c) and 4(d) illustrate the total bone density of the respective shafts. The meanings of the abbreviations used in FIGS. 4a-4d are identical to those described above with regard to FIG. 3 (a-e);
All of the data presented above are based on analyses carried out solely of the distal epiphysis portion of the rat femurs. Subsequently, however, to avoid the above-described drawbacks associated with reading the bone density at the level of the epiphysis, the inventors undertook to further analyze the remaining portions of the animals' femur bones and particularly, areas along the length of the cortical shaft. […] In the discussion which follows, directed to the results of these additional analyses, the reader is reminded that the bone marrow ablation (bmx) technique was practiced, in all cases, only on the left femur of the test animals. That is to say, there was no ablation of the marrow portion in the right femur. Thus, in the right femur views discussed below, wherein the illustration or graph relating to the right femur is labeled with the abbreviation “bmx”, etc. to describe the modality of treatment which the rat was subjected to, one should understand such labeling to mean that the view is of a right femur, or is of a graph which presents a value obtained pursuant to the analysis of such right femur, wherein the animal's corresponding left femur underwent a bone marrow ablation treatment in the manner described herein.
FIG. 4 (a-d) graphically illustrate the formation of both trabecular bone and, to some extent, total bone, within the left femoral shaft in rats from the Groups described in Tables 1 and/or 2 above, wherein the left femur was subjected to a bmx (bone marrow ablation) treatment coupled with a concurrent and/or subsequent administration of one or more bone anabolic agents, including parathyroid hormone (PTH[1-34]-NH2) and one or more anti-resorptive agents such as salmon calcitonin. […] The effects of these last two combinations protects the significant initial bone formation induced by bmx, but not to the same extent as parathyroid hormone (PTH[1-34]-NH2) alone.
FIGS. 4(b) and 4(d) are provided to illustrate the results obtained with the same animals' corresponding right femoral shafts, i.e, in which bone marrow ablation (bmx) was not performed. Little or no new bone formation was observed, i.e, the density remained substantially constant, since the only treatment received by the right femurs was due to the systemic administration of the bone anabolic agent. The agent(s) was administered for too short a period to have, by itself, any real positive effect on the bone density. In fact, the total bone density curve for the right femoral shaft presents a substantially straight line, which is attributable to the fact that the total density measurement includes a measurement of cortical bone. Furthermore, since the anabolic agent was not administered for a period sufficient to increase cortical bone density, the total density remained unchanged.
The table additionally includes the standard deviations (“sd”) for the values obtained for each analysis, which standard deviations are also indicated in FIG. 4 (a-d).
The results set forth in FIGS. 1, 2, 4, 5, 11 and 12 and the corresponding Tables, Nos. 1, 2, 3, 4, 5 and 6 discussed above were obtained with the use of a method for mechanically inducing increased osteoblast activity as illustrated in FIGS. 14A-14D. […]

[3] = system: Male Sprague-Dawley rats; assay: Serum osteocalcin concentration at day 21, Groups K-R
From the text: FIG. 12 provides a measurement of the serum osteocalcin concentration (in ng/ml) in the blood of the rats in Groups K-R when the rats were sacrificed 21 days after commencement of treatment. The meaning of the abbreviated terms is the same as in FIGS. 10 and 11. […] [*=p value<0.05, while **=p value<0.01];
FIG. 12 is a bar graph which sets forth the osteocalcin levels determined, at the time of sacrifice, in the blood serum of the rats which were the subject of the analyses illustrated in FIGS. 10 and 11. As indicated above, it is well known that osteocalcin is a biochemical marker indicative of new bone growth.
The table additionally includes the standard deviations for the values obtained for each analysis, which standard deviations are also included in FIG. 12.

**Q.** Which results are given for PTH[1-34]-NH2?
**A.** bone anabolic activity (lumbar vertebral bone mineral density and bone formation rate) [1]: substantially equivalent; Left femoral shaft Total density mean ([2]; Day 0): 726.1 mg/mL; Left femoral shaft Trabecular density mean ([2]; Day 0): 21.4 mg/mL; Left femoral shaft Total density mean ([2]; Day 7): 867.5 mg/mL; Left femoral shaft Trabecular density mean ([2]; Day 7): 243.8 mg/mL; Left femoral shaft Total density mean ([2]; Day 14): 968.7 mg/mL; Left femoral shaft Trabecular density mean ([2]; Day 14): 465.4 mg/mL; Left femoral shaft Total density mean ([2]; Day 21): 1046.7 mg/mL; Left femoral shaft Trabecular density mean ([2]; Day 21): 511.2 mg/mL; new trabecular bone formation in left femoral shaft, in words [2]: greatest formation of new trabecular bone; Right femoral shaft Total density mean ([2]; Day 0): 787.2 mg/mL; Right femoral shaft Trabecular density mean ([2]; Day 0): 12.9 mg/mL; Right femoral shaft Total density mean ([2]; Day 7): 848.2 mg/mL; Right femoral shaft Trabecular density mean ([2]; Day 7): 1.5 mg/mL; Right femoral shaft Total density mean ([2]; Day 14): 871 mg/mL; Right femoral shaft Trabecular density mean ([2]; Day 14): 13.7 mg/mL; Right femoral shaft Total density mean ([2]; Day 21): 864.8 mg/mL; Right femoral shaft Trabecular density mean ([2]; Day 21): 10.7 mg/mL; osteocalcin level, in words ([3]; bmx + agent daily for 21 days): highest osteocalcin level; Osteocalcin mean ([3]; bmx rats, day 21, agent daily for 21 days, Groups K-R): 141.5 ng/mL

**Q.** With “salmon calcitonin [CT, reference compound]” as the substance, how does the “Left femoral shaft Total density mean” value ([2]; Day 0) read?
**A.** The value was 726.1 mg/mL.

**Q.** What about the “Left femoral shaft Trabecular density mean” value ([2]; Day 0) of the same substance?
**A.** The value was 21.4 mg/mL.

**Q.** And the “Left femoral shaft Total density mean” value ([2]; Day 7)?
**A.** Its value is 833.6 mg/mL.

**Q.** What about the “Left femoral shaft Trabecular density mean” value ([2]; Day 7) of the same substance?
**A.** Its value is 232.2 mg/mL.

**Q.** What about the “Left femoral shaft Total density mean” value ([2]; Day 14) of the same substance?
**A.** The value was 876.2 mg/mL.

**Q.** And the “Left femoral shaft Trabecular density mean” value ([2]; Day 14)?
**A.** The value was 257 mg/mL.

**Q.** And the “Left femoral shaft Total density mean” value ([2]; Day 21)?
**A.** Its value is 833.2 mg/mL.

**Q.** What about the “Left femoral shaft Trabecular density mean” value ([2]; Day 21) of the same substance?
**A.** The value was 163.5 mg/mL.

**Q.** What about the “new trabecular bone formation in left femoral shaft, in words” value [2] of the same substance?
**A.** Its value is “Beneficial results”.

**Q.** What about the “Right femoral shaft Total density mean” value ([2]; Day 0) of the same substance?
**A.** The value was 787.2 mg/mL.

**Q.** And the “Right femoral shaft Trabecular density mean” value ([2]; Day 0)?
**A.** The value was 12.9 mg/mL.

**Q.** What about the “Right femoral shaft Total density mean” value ([2]; Day 7) of the same substance?
**A.** Its value is 797.4 mg/mL.

**Q.** And the “Right femoral shaft Trabecular density mean” value ([2]; Day 7)?
**A.** Its value is 1.2 mg/mL.

**Q.** And the “Right femoral shaft Total density mean” value ([2]; Day 14)?
**A.** The value was 821.9 mg/mL.

**Q.** What about the “Right femoral shaft Trabecular density mean” value ([2]; Day 14) of the same substance?
**A.** The value was 10.9 mg/mL.

**Q.** And the “Right femoral shaft Total density mean” value ([2]; Day 21)?
**A.** The value was 821.3 mg/mL.

**Q.** And the “Right femoral shaft Trabecular density mean” value ([2]; Day 21)?
**A.** Its value is 10.8 mg/mL.
